Data from patent US11186606B2, “Compositions and methods of modulating the immune response by activating alpha protein kinase 1” (Shanghai Yao Yuan Biotechnology Co., Ltd., priority 2017, dated 2021).

What was measured:
ALPK1 [1] = molecular target: T1, ALPK1 (Homo sapiens, UniProt Q96QP1); assay: Thermal shift assay (SYPRO Orange) for binding to ALPK1; conditions: ALPK1 7 uM
From the text: The thermal shift assay is widely used to determine the binding of a molecule to a protein of interest. The assay is based on the increase in thermal energy required for denaturation of a protein where another molecule is bound to the protein. SYPRO Orange is a fluorescent compound used in the detection of thermal shift. SYPRO Orange binds to hydrophobic surfaces of the protein, and water strongly quenches its fluorescence. When the protein unfolds, the exposed hydrophobic surfaces bind the dye, resulting in an increase in fluorescence. When another molecule is bound to the protein, an increase in the temperature required for unfolding of the protein is observed.
This assay system was used to determine whether or not chemically synthesized HBP, HMP-1bP, and H1b-ADP directly bind to ALPK1. […] Only H1b-ADP induced a shift of more than 1 degree, at each of the three highest concentrations tested, 5 uM, 25 uM, and 125 uM.

ALPK1 [2] = molecular target: T1, ALPK1; assay: Cell-free kinase assay of ALPK1-dependent phosphorylation of IκB; type: biochemical; conditions: 2 nM ALPK1, with or without ATP, 1 hour
Experimental: We next tested whether H1b-ADP-induced autophosphorylation of ALPK1 was effective to activate NFκB using phosphorylation of IκB as a marker for this activity. Phosphorylation assays were performed according to standard protocols and phosphorylated protein was detected by gel electrophoresis and Western blotting using an antibody that detects phosphorylated IκB. Briefly, assays were performed in a 20 μl volume at 25° C. in assay buffer (25 mM HEPES pH 7.5, 50 mM KCl, 0.1 mM EDTA, 0.1 mM EGTA, 2 mM DTT, 1.5 mM CaCl2, 10 mM MgCl2) containing 2 nM ALPK1 and H1b-ADP […] with or without ATP, or either ALPK1 alone or H1b-ADP alone, both in the presence of ATP. After 1 hour of incubation, the reaction was loaded to denaturing gel for protein electrophoresis and Western was performed to detect phosphorylation of IkB using p-IkB antibody (Abcam).

CT26 cells = assay: CT26 tumor xenograft model, tumor volume; type: in vivo, BALB/c mice
Experimental: We used a CT26 tumor xenograft model to test the anti-cancer activity of H1b-ADP. Tumor cells (2×10^5 per 100 uL CT26 cells) were inoculated subcutaneously into the right flank of BALB/c mice. At day 6, mice whose tumors had reached 3-5 mm in diameter were randomized and grouped into three groups (n=8 each group), control, HMP-1bP (580 ug), and H1b-ADP (1.2 ug). Injections were performed using a total volume of 20 uL at days 6, 8, 10, 12, and 14 post inoculation. Tumor volumes were calculated every 2 days from caliper measurements of tumor dimension using the formula (L×W^2)/2, where L is the longer measurement.
To test whether H1b-ADP could augment an anti-tumor response by a checkpoint inhibitor, we tested the effects of co-administration with an anti-PD1 antibody. Tumor cells (2×10^5 per 100 μL CT26 cells) were inoculated subcutaneously into the left and right flanks of BALB/c mice. At day 7, mice whose tumors had reached 5 mm in diameter were randomized and grouped (n=8 each group) into the following four groups: anti-PD1 antibody; rat IgG; H1b-ADP+rat IgG; H1b-ADP+anti-PD1 antibody. We utilized RMP1-14 as the anti-PD1 antibody (10 mg/kg) and a rat IgG 2a (2A3) as the control IgG. Each of the anti-PD-1 antibody and the control IgG was administered intraperitoneally in a 200 μL volume on days 6, 10, 12, and 17 post-inoculation. H1b-ADP (6.2 μg) was intratumorally injected in a 20 μL volume at day 6, 8, 10, 12, and 15. Tumor volumes were calculated every 2 days from caliper measurements of tumor dimensions using the formula (L×W^2)/2, where L is the longer measurement. The results are shown in FIG. 13A for injected tumors and FIG. 13B for distant tumors. […]
The experiment was carried out as combo experiments of anti-PD1 except for the following variations. At day 6, mice whose tumors had reached 5 mm in diameter were randomized and grouped into the following four groups: c-di-AM(PS)2; PBS; H1b-ADP; H1b-ADP+c-di-AM(PS)2. We utilized c-di-AM(PS)2 as the STING agonist. Each of the c-di-AM(PS)2 (1 μg) and H1b-ADP (6.2 μg) was administered intratumorally in a 20 μL volume on days 6, 7, and 9 post-inoculation.
The experiment was carried out as combo experiments of anti-PD-1 except for the following variations. At day 6, mice whose tumors had reached 5 mm in diameter were randomized and grouped into the following four groups: anti-CD4 antibody (GK1.5 clone, BE0003-1, BioXcell); rat IgG; H1b-ADP+rat IgG; H1b-ADP+anti-CD4 antibody. Each of the anti-CD4 antibody (200 μg) and the control IgG (200 μg) was administered intraperitoneally in a 200 μL volume on days 3, 4, 8 post-inoculation. H1b-ADP (6.2 μg) was administered intratumorally in a 20 μL volume on days 6, 8, 10, 12, 14 post-inoculation.
The experiment was carried out as combo experiments of anti-PD-1 except for the following variations. At day 6, mice whose tumors had reached 5 mm in diameter were randomized and grouped into the following four groups: Resquimod; PBS; H1b-ADP; H1b-ADP+Resquimod. Resquimod (10 μg) and H1b-ADP (6.2 μg) were administered intratumorally in a 20 μL volume on days 6, 8, 11 post-inoculation.
We used a CT26 tumor xenograft model to test the anti-cancer activity of H1b-ADP derivative Compounds 1 and 2. Tumor cells (2×10^5 per 100 uL CT26 cells) were inoculated subcutaneously into the right flank of BALB/c mice. At day 7, mice whose tumors had reached 3-5 mm in diameter were randomized and grouped into three groups (n=9 each group), control, Compound 1 (50 nmol), and Compound 2 (50 nmol). Injections were performed using a total volume of 20 uL at days 7, 9, and 11 post inoculation. Tumor volumes were calculated every 2 days from caliper measurements of tumor dimension using the formula (L×W^2)/2, where L is the longer measurement.

[3] = system: mouse bone marrow-derived macrophages; assay: Cxcl1 mRNA expression in mouse bone marrow-derived macrophages (qPCR); type: cell-based; conditions: 0.4 nM or 2 nM, 2.5 hours
Experimental: In these experiments, mouse bone marrow-derived macrophages were treated with 0.4 nM or 2 nM H1b-ADP for 2.5 hours and harvested for mRNA expression analysis of Cxcl1 by qPCR. […] Accordingly, very low doses of H1b-ADP, or an agonist thereof, may be used to enhance or potentiate an immune response in a local tissue.

ALPK1 [4] = molecular target: T1, ALPK1; assay: IL8 secretion in HEK293 cells (IL8 ELISA) as indicator of ALPK1 activation; conditions: cells cultured with fetal bovine, human or mouse serum
Experimental: We pre-mixed H1b-ADP with phosphatase inhibitor sodium orthovanadate (Na3VO4) before incubation with FBS.
In these experiments, serial dilutions of the compounds were added to the tissue culture media of HEK293 cells with (FIG. 27B, FIG. 28B, FIG. 29B) or without (FIG. 26, FIG. 27A, FIG. 28A, FIG. 29A) 10% FBS, as indicated in the figures. After 4 hours, the cell supernatant was collected and analyzed for IL8 concentration using IL8 ELISA (BD) as an indicator of ALPK1 activation.

T1 sequence (Q96QP1 whole entry): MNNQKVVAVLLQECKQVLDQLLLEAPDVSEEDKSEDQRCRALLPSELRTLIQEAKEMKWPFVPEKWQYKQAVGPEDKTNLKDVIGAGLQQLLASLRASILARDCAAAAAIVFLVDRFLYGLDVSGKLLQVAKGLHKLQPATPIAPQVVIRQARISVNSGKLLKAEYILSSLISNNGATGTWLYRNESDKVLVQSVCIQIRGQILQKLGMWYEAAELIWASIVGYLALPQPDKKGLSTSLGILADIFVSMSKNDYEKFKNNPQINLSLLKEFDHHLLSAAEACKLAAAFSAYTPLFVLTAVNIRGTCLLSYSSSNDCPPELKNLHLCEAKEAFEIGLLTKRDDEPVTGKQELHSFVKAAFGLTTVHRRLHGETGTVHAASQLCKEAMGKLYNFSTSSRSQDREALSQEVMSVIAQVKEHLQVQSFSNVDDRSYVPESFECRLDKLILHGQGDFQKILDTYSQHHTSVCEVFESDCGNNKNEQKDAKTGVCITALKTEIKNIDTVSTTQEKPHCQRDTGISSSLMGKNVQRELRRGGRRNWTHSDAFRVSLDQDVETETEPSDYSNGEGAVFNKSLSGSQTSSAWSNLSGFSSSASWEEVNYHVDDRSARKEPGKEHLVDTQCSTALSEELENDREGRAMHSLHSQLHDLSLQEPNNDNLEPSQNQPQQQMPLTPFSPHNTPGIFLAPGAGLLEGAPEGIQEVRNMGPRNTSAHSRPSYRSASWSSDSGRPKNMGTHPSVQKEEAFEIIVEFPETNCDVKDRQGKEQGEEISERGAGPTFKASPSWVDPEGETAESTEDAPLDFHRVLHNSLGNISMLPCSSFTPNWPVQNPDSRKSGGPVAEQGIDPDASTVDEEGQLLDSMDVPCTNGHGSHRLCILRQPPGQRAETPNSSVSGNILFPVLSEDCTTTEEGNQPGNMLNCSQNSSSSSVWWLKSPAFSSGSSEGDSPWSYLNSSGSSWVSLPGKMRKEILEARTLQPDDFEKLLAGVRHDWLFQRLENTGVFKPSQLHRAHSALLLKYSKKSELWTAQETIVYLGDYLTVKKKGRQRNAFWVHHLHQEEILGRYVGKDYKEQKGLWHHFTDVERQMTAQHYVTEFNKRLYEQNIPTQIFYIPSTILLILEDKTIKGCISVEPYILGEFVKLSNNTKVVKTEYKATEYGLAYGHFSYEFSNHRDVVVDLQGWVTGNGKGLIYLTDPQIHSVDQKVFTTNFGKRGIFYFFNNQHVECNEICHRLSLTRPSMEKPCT

- thermal shift / direct binding to ALPK1 (ALPK1 [1]; 1 uM, 5 uM, 25 uM, or 125 uM): able to directly bind to ALPK1
- thermal shift of ALPK1 (ALPK1 [1]; at 5 uM, 25 uM, and 125 uM): more than 1 degree
- activity to activate ALPK1 in HEK293 cells (IL8 secretion) (ALPK1 [4]): greatly declined
Structure (SMILES): Nc1ncnc2c1ncn2[C@@H]1O[C@H](COP(=O)(O)OP(=O)(O)O[C@@H]2O[C@H]([C@H](O)CO)[C@@H](O)[C@H](O)[C@@H]2O)[C@@H](O)[C@H]1O [Compound H1b-ADP, D-glycero-D-manno-heptose-1β-ADP]
- IkB phosphorylation (ALPK1 [2]): detected only in the presence of both ALPK1 and H1b-ADP in the presence of ATP
- tumor growth (CT26 cells; Example 7: H1b-ADP 6.2 μg intratumoral, RMP1-14 10 mg/kg intraperitoneal): markedly suppressed tumor growth
- tumor growth (CT26 cells; intratumoral, days 6, 8, 10, 12, 14, HMP-1bP 580 ug, H1b-ADP 1.2 ug): reduced tumor growth
- Cxcl1 mRNA expression, fold change over non-treated control [3]: dose-dependent response
